Some test systems named below: SF-295 CNS; CAKI-1 renal; OVCAR-5 ovarian; IGROV1 ovarian; UACC-62 melanoma; TK-10 renal; U251 CNS; NCI-H522 lung; SK-OV-3 ovarian; A549 NSCLC.
What all share (assay): inhibition of tumour cell growth, NCI panel, 48 h

“And” between values parts separate entries of the source, which are not always exact repeats. Identical values can stand only once.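 Where inhibition never reached the appropriate level, the endpoint shown equals the highest concentration tested. Otherwise, values were interpolated linearly from a five-concentration, 48-hour dose response in 96-well plates. GI50 marks 50% less growth. At the TGI there is no net growth.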

With `C=C(Br)CNC(=O)CCC(=O)NCC(=C)Br`, the TGI in the assay on SF-295 CNS, in the assay on CAKI-1 renal, in the assay on OVCAR-5 ovarian, in the assay on IGROV1 ovarian, in the assay on UACC-62 melanoma and in the assay with TK-10 renal was greater than 100 µM each time. The TGI in the assay with U251 CNS, with NCI-H522 lung, with SK-OV-3 ovarian and in the assay on A549 NSCLC was greater than 100 µM in each case.
As to `CC12CCC(Br)C(C)(C)C1CC=C1C(=O)OCC1O2` (stereo unspecified), the TGI is 37.6 µM in the assay with SF-295 CNS; 26.8 µM in the assay with CAKI-1 renal; greater than 53.3 µM in the assay on OVCAR-5 ovarian; 17.7 µM in the assay with IGROV1 ovarian; 25.7 µM with UACC-62 melanoma; 28.5 µM in the assay with TK-10 renal. Besides, the TGI with U251 CNS was 23.2 µM; in the assay on NCI-H522 lung it was 11.7 µM; with SK-OV-3 ovarian it was 29.9 µM; in the assay with A549 NSCLC, greater than 57.9 µM.
For `Cc1cn(-c2cc(NC(=O)c3ccc(C)c(Nc4nccc(-c5cccnc5)n4)c3)cc(C(F)(F)F)c2)cn1`, the GI50 in the assay on SF-295 CNS is 3.16 µM and 2.78 µM; in the assay on CAKI-1 renal, > 10 µM and 7.37 µM; in the assay on OVCAR-5 ovarian, > 10 µM and 3.48 µM; with IGROV1 ovarian, 2.23 µM and 1.83 µM; in the assay on UACC-62 melanoma, 1.65 µM and 1.09 µM; in the assay on TK-10 renal, 5.26 µM and 4.07 µM. Besides, the GI50 is 2.97 µM and 2.47 µM in the assay with U251 CNS; 3.46 µM and 4.18 µM with NCI-H522 lung; > 10 µM and 3.91 µM with SK-OV-3 ovarian; 5.31 µM and 2.68 µM in the assay on A549 NSCLC. In addition, the TGI with SF-295 CNS was > 10 µM and 11.3 µM; in the assay with CAKI-1 renal it was > 10 µM and 14.3 µM; in the assay with OVCAR-5 ovarian, > 10 µM and 16.4 µM; in the assay on IGROV1 ovarian, 5.06 µM and 4.2 µM; in the assay on UACC-62 melanoma, > 10 µM and 9.18 µM; in the assay on TK-10 renal it was > 10 µM and 9.38 µM. Moreover, the TGI in the assay on U251 CNS is > 10 µM and 7.32 µM; in the assay with NCI-H522 lung, > 10 µM and 24.4 µM; with SK-OV-3 ovarian, > 10 µM and 11.3 µM; with A549 NSCLC, > 10 µM and 7.76 µM.
In the case of `O=c1cccccc1[O-].O=c1cccccc1[O-].O=c1cccccc1[O-].[La+3]`, the TGI with SF-295 CNS was 39.6 µM; with CAKI-1 renal, greater than 100 µM; in the assay with OVCAR-5 ovarian it was greater than 100 µM; in the assay on IGROV1 ovarian it was 75.8 µM; with UACC-62 melanoma it was 52 µM; with TK-10 renal it was 67.9 µM. Further, the TGI in the assay with U251 CNS is 76.2 µM; in the assay with NCI-H522 lung, 84.2 µM; in the assay with SK-OV-3 ovarian, 86.9 µM; in the assay on A549 NSCLC, greater than 100 µM. For the same compound, in the assay with U251 CNS, the GI50 is 11 µM.
Consider `CCCCCCCc1cc2c3c(nc4ccccc42)C(=O)c2cccnc2-c3n1`, for which the GI50 with SF-295 CNS is 3.45 µM; in the assay with CAKI-1 renal, 4.6 µM; in the assay on OVCAR-5 ovarian it was 4.09 µM; in the assay on IGROV1 ovarian, 3.28 µM; in the assay on UACC-62 melanoma, 5.41 µM; in the assay on TK-10 renal it was 2.4 µM. Moreover, the GI50 in the assay on U251 CNS was 2.96 µM; in the assay on NCI-H522 lung it was 1.14 µM; in the assay with SK-OV-3 ovarian it was 15.3 µM; with A549 NSCLC, 2.46 µM. Further, the TGI came to 7.32 µM in the assay with SF-295 CNS; 9.51 µM with CAKI-1 renal; 10.7 µM with OVCAR-5 ovarian; 15.1 µM in the assay with IGROV1 ovarian; 10.1 µM in the assay with UACC-62 melanoma; 4.41 µM in the assay on TK-10 renal. In addition, the TGI with U251 CNS was determined as 8.05 µM; with NCI-H522 lung it was 3.07 µM; in the assay with SK-OV-3 ovarian, 28.6 µM; in the assay on A549 NSCLC, 11.9 µM.
In the case of `O=C1C[C@@H]2/C(=C(O)\C=C\c3ccccc3)C(=O)C=C[C@@H]2O1`, the GI50 is 3.44 µM with SF-295 CNS; 2.35 µM in the assay with CAKI-1 renal; 1.93 µM in the assay with OVCAR-5 ovarian; 0.385 µM in the assay with IGROV1 ovarian; 3 µM with UACC-62 melanoma; 2.63 µM in the assay with TK-10 renal. Further, the GI50 in the assay on U251 CNS is 1.56 µM; in the assay on NCI-H522 lung it was 0.206 µM; with SK-OV-3 ovarian, 4.86 µM; in the assay on A549 NSCLC it was 3.51 µM. Moreover, the TGI is 13.7 µM in the assay on SF-295 CNS; 11.8 µM with CAKI-1 renal; 3.84 µM in the assay with OVCAR-5 ovarian; 1.56 µM in the assay on IGROV1 ovarian; 12.2 µM in the assay on UACC-62 melanoma; 7.59 µM in the assay on TK-10 renal. Moreover, the TGI was found to be 3.41 µM with U251 CNS, 0.615 µM in the assay on NCI-H522 lung, 16.9 µM in the assay on SK-OV-3 ovarian and 12.8 µM in the assay with A549 NSCLC.
For `NCCCNCCCCNC(=O)C(O)NC(=O)CCCCCCN=C(N)N` (stereo unspecified), the GI50 is 1400 µM with SF-295 CNS; 540 µM and > 3340 µM in the assay with CAKI-1 renal; greater than 3010 µM in the assay on OVCAR-5 ovarian; 2620 µM with IGROV1 ovarian; greater than 2860 µM with UACC-62 melanoma; greater than 4030 µM in the assay on TK-10 renal. Besides, the GI50 in the assay on U251 CNS is 2080 µM; in the assay on NCI-H522 lung it was 1350 µM; in the assay with SK-OV-3 ovarian, greater than 5000 µM; in the assay on A549 NSCLC, 1640 µM. The TGI in the assay with SF-295 CNS was 608 µM and > 4710 µM; in the assay with CAKI-1 renal, 710 µM and > 5000 µM; in the assay on OVCAR-5 ovarian, greater than 5000 µM; in the assay on IGROV1 ovarian, 750 µM and > 5000 µM; with UACC-62 melanoma, 750 µM and > 5000 µM; in the assay with TK-10 renal, greater than 5000 µM. For the same compound, the TGI in the assay on U251 CNS is 636 µM and > 4540 µM; in the assay on NCI-H522 lung it was 636 µM and 2860 µM; in the assay with SK-OV-3 ovarian it was greater than 5000 µM; with A549 NSCLC, 750 µM and > 5000 µM.
Turning to `Cc1cc(C)c(-n2c(-c3ccc(Br)cc3)cs/c2=N\N=C2C=C(C(C)(C)C)C(=O)C(C(C)(C)C)=C2)c(C)c1`, the TGI in the assay on SF-295 CNS, in the assay with CAKI-1 renal, in the assay with OVCAR-5 ovarian, in the assay with IGROV1 ovarian, with UACC-62 melanoma and with TK-10 renal was greater than 100 µM in each case. Also, the TGI in the assay on U251 CNS, with NCI-H522 lung, with SK-OV-3 ovarian and in the assay with A549 NSCLC was greater than 100 µM each time.
On to `COc1ccc(-c2ccc(-c3ccc(C(=N)N)o3)o2)cc1`, for which the GI50 is 1.68 µM with SF-295 CNS; 1.75 µM in the assay with CAKI-1 renal; 2.42 µM with OVCAR-5 ovarian; 1.73 µM in the assay on IGROV1 ovarian; 1.29 µM with UACC-62 melanoma; 7.97 µM with TK-10 renal. For the same compound, the GI50 with U251 CNS was 1.74 µM; in the assay with NCI-H522 lung it was 1.09 µM; in the assay on SK-OV-3 ovarian, 5.63 µM; in the assay with A549 NSCLC, 1.49 µM. For the same compound, the TGI worked out at 3.51 µM in the assay with SF-295 CNS; 4.29 µM in the assay on CAKI-1 renal; 5.88 µM in the assay with OVCAR-5 ovarian; 7.03 µM in the assay with IGROV1 ovarian; 3.05 µM in the assay on UACC-62 melanoma; 21 µM in the assay on TK-10 renal. For the same compound, the TGI in the assay on U251 CNS stood at 4.12 µM; with NCI-H522 lung it was 3.48 µM; in the assay on SK-OV-3 ovarian, 18.7 µM; in the assay on A549 NSCLC, 4.79 µM.

These data come from PubChem BioAssay (NCI).
